Here are results for five compounds from US20260176260A1, “DUAL RAF AND TUBULIN INHIBITORS AND METHODS OF USE THEREOF” (Deciphera Pharmaceuticals, LLC, priority 2023, published 2026).

pIC50: −log10 of the molar value. Read-outs that look alike come from different tables or passages of the source.

This test deals with MiaPaca-2 cells. The experiment in a line: MiaPaca-2 cell proliferation assay (resazurin). It counts as cell-based. Conditions: read-out: MiaPaca-2.
Setting [1] is: Homo sapiens, MIA PaCa-2, Table 2, inhibition of cell proliferation.

For `CNC(=O)c1cc(-c2cc(-c3cc(NC(=O)c4cc(C(F)(F)F)cnn4)ccc3C)cc(C)n2)ccn1` [Example 2, N,6-dimethyl-4-(2-methyl-5-(5-(trifluoromethyl)pyridazine-3-carboxamido)phenyl)-[2,4′-bipyridine]-2′-carboxamide], the pIC50 is 6.30 to 7.00 under setting [1] and 6.30 to 7.00 (Table 3).
Regarding `CNC(=O)c1cc(-c2cc(-c3cc(NC(=O)c4cc(C(F)(F)F)cnn4)ccc3C)ccn2)ccn1` [Example 9], the pIC50 is 6.30 to 7.00 under setting [1] and 6.30 to 7.00 (Table 3).
Turning to `CNC(=O)c1cc(-c2cc(-c3cc(NC(=O)c4cc(C(F)(F)F)cnn4)ccc3C)cc(NCCO)n2)ccn1` [Example 18], the pIC50 reads like this: under setting [1], over 7.00; (Table 3) over 7.00.
With `CNC(=O)c1cc(-c2cc(-c3cc(NC(=O)c4cc(C5CC5)cnn4)ccc3C)ccn2)ccn1` [Example 26], the pIC50 runs as follows: under setting [1], 6.30 to 7.00; (Table 3) 6.30 to 7.00.
On to `CNC(=O)c1cc(-c2cc(-c3cc(NC(=O)c4cc(C5CC5)cnn4)ccc3C)cc(NCCO)n2)ccn1` [Example 27], for which the pIC50 is 6.30 to 7.00 under setting [1] and 6.30 to 7.00 (Table 3).
